Data set [1] addresses T1, full-length tau (T40) in fibroblast cells (3T6) (Homo sapiens, UniProt P10636).
T1 construct: fibroblast cells (3T6) express full-length tau (“T40”) under control of an inducible promoter; low constitutive levels of the PHF-core tau fragment (12 kD fragment); expressed in transfected cells; host or cells: 3T6 fibroblast cells
As to the kind of experiment: Cell-based assay for establishing EC50 (generation of the 12 kD fragment).
Description: Briefly, fibroblast cells (3T6) express full-length tau (“T40”) under control of an inducible promoter, and low constitutive levels of the PHF-core tau fragment (12 kD fragment). When T40 expression is induced, it undergoes aggregation-dependent truncation within the cell, N-terminally at ˜αα295 and C-terminally at ˜αα390, thereby producing higher levels of the 12 kD PHF-core domain fragment. […] Indeed, the quantitation of inhibitory activity of compounds with respect to proteolytic generation of the 12 kD fragment within cells can be described entirely in terms of the same parameters that describe inhibition of tau-tau binding in vitro. That is, the extent of proteolytic generation of the 12 kD fragment within cells is determined entirely by the extent of tau-tau binding through the repeat domain. The availability of the relevant proteases within the cell is non-limiting.
Results are expressed as the concentration at which there is a 50% inhibition of generation of the 12 kD fragment. This is referred to as the EC50 value.

Data set [2] can be described thus: Stability in aqueous solution (percent reduced form by absorbance at 610 nm and 665 nm). It is filed as physicochemical. How it is done:
The compounds were weighed into universal containers. Enough water was added to yield a 1 mM solution, and the mixture stirred to dissolve the solid. The absorbance was determined at 610 nm and 665 nm for 50 μL samples (in triplicate) of each of the solutions at various time points. The initial time point taken was at 10 minutes as the compounds took time to dissolve completely. A UV/visible spectrum was also recorded at time points 20 minutes, 3 hours, and 18 hours.

The test system of data set [3] is fibroblast cells (3T6). The data set is classed as cell-based. As to conditions: therapeutic index, RxI = LD50/EC50.
Protocol: Toxicity of the compounds described herein was assessed in the cell based assay used to assess EC50. […] Alternatively, a kit from Promega UK (CytoTox 96) was used, again according to the manufacturer's instructions.
A short description of data set [4]: Partition coefficient, n-octanol/water, visible spectrophotometry. It is filed as physicochemical.
Protocol: In this study, aqueous solutions of selected compounds were shaken with n-octanol and aliquots concentrations in each phase determined by visible spectrophotometry. The log10P was then calculated for each compound, using the following formula:
Data set [5] in a line: Stability of the solid form in storage. The data set is classed as physicochemical. The procedure: A batch of N,N,N′,N′-tetramethyl-10H-phenothiazine-3,7-diamine bis(hydrogen bromide) was prepared in April 2006 and analysed by NMR. […] The colour of the solid remained consistent over time. It appears that the molecule, in this form, is stable under these conditions over this time period.

[6] abbreviates: concentration at which there is a 50% inhibition of generation of the 12 kD fragment, 3T6 cells, read-out: EC50.

Structures are written as SMILES. Like-named read-outs stand apart in the source and are kept apart here.

T1 sequence (P10636 2-441 isoform P10636-8 limits assumed): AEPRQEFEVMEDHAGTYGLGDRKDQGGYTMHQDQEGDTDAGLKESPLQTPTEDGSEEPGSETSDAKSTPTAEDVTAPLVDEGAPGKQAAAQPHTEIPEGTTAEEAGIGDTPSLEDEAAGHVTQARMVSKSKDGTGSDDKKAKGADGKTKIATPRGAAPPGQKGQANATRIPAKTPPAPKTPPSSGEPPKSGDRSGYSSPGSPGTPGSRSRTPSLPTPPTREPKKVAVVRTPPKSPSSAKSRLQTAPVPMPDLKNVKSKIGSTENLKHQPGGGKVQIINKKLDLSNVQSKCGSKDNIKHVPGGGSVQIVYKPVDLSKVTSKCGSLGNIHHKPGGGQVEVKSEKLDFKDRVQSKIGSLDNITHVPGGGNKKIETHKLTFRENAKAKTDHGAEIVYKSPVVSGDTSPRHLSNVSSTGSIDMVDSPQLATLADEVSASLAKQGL

For orientation: EC50 means the concentration giving half of the maximal effect. In the case of `CN(C)c1ccc2c(c1)Sc1cc(N(C)C)ccc1N2` [Compound B6, N,N,N′,N′-Tetramethyl-10H-phenothiazine-3,7-diamine bis(hydrogen iodide)], the EC50 in data set [1] was determined as 380 nM. Besides, the “time remaining substantially stable (>50% reduced form)” value in data set [2] (1 mM solution in water) is ~3 h. In data set [2] (aqueous solution, compared to the chloride compound (Compound B3)), the rate of autoxidation entry is on record as “slower”. For the same molecule, the RxI in data set [3] is reported as 303. In addition, the Log10P in data set [4] is reported as −0.498.
As to `CN(C)c1ccc2c(c1)Sc1cc(N(C)C)ccc1N2` [N,N,N′,N′-Tetramethyl-10H-phenothiazine-3,7-diamine bis(hydrogen bromide], the “stability of solid after storage (NMR, colour)” value in data set [5] (solid, 10 months of storage in the dark at room temperature) is “stable”.
Take `CN(C)c1ccc2c(c1)Sc1cc(N(C)C)ccc1N2` [Compound B3, N,N,N′,N′-Tetramethyl-10H-phenothiazine-3,7-diamine bis(hydrogen chloride)]: the EC50 in data set [1] (setting [6]) is 500 nM. The “state of solid form after storage” value in data set [5] (solid form, after 2 years in storage) is listed as “substantially reduced”. The RxI in data set [3] was 88. In addition, the Log10P in data set [4] is −0.13.
Take `Nc1ccc2c(c1)Sc1cc(N)ccc1N2` [Compound B4, 3,7-Diamino-phenothiazine bis(hydrogen chloride)]: in data set [1] (setting [6]), the EC50 came to 2230 nM.

The record behind these values is US12324810B2, “3, 7-diamino-10H-phenothiazine salts and their use” (WisTa Laboratories Ltd., priority 2006, dated 2025).
